{
  "source": "patent US20050245461A1",
  "about": "“Methods for treating alcoholism” (priority 2004, published 2005)",
  "key": {"alcohol withdrawal": {"system": "alcohol withdrawal", "details": "literature (Myrick 1998; Karam-Hage 2000; Minuk 1995); cited from earlier work"}, "[1]": {"system": "ethanol drinking (lever presses for ethanol cocktail)", "test": "rat model of alcohol self-administration (operant lever pressing for 10% ethanol cocktail)", "details": "for effect on naltrexone's ability to decrease drinking when coadministered: coadministered with naltrexone, conclusion of Example 1; for ED50: Rattus norvegicus; for Lever Presses (Mean ± SEM): 30 min session"}, "[2]": {"system": "audiogenic-induced convulsions", "test": "audiogenic-induced convulsions in mouse model of alcohol withdrawal"}, "[3]": {"test": "pharmacokinetic study: naltrexone in plasma alone or coadministered with gabapentin", "format": "in vivo, rat", "details": "vehicle+naltrexone vs gabapentin+naltrexone (gabapentin 1 mg/kg, naltrexone 0.5 mg/kg), rats", "procedure": "FIG. 3C is a line graph showing the amount of naltrexone in the plasma over a period of time for naltrexone administered alone or naltrexone coadministered with gabapentin.\nTo determine if this drug interaction might be effective in decreasing ethanol drinking with lower doses of naltrexone, the dose of gabapentin (1 mg/kg) was kept constant and the dose of naltrexone varied from 0.05 to 3.0 mg/kg (FIG. 3B). […] To determine if gabapentin may be altering the plasma profile of naltrexone at this dose combination, a pharmacokinetic study was run in a separate cohort group of rats."}, "[4]": {"details": "anticonvulsant 0.1 mg/kg PO + naltrexone 0.1 mg/kg SC"}, "[5]": {"details": "anticonvulsant 1.0 mg/kg PO + naltrexone 0.1 mg/kg SC"}, "[6]": {"details": "anticonvulsant 10.0 mg/kg PO + naltrexone 0.1 mg/kg SC"}},
  "note": "Entries after “also recorded” stand apart in the source; their conditions may differ. Like-named read-outs stand apart in the source and are kept apart here.",
  "data": [
    {"compound": "1-(aminomethyl)cyclohexane acetic acid [Gabapentin]", "values": [
      {"measurement": "safety and efficacy as alternatives to benzodiazepines for the treatment of alcohol withdrawal", "setting": "alcohol withdrawal", "value": "safe and efficacious"},
      {"measurement": "effect on naltrexone's ability to decrease drinking when coadministered", "setting": "[1]", "value": "did not impair or block"},
      {"measurement": "enhancement of naltrexone's effect on alcohol drinking", "setting": "[1]; coadministration of gabapentin, narrow therapeutic window", "value": "enhanced naltrexone's effects of alcohol drinking"},
      {"measurement": "ethanol drinking, combination compared to naltrexone alone", "setting": "[1]; gabapentin 1 mg/kg PO plus naltrexone 0.5 mg/kg SC, p<0.006", "value": "further significant decrease"},
      {"measurement": "difference in number of lever presses, naltrexone alone vs combined with gabapentin", "setting": "[1]; gabapentin 1 mg/kg constant, naltrexone 0.05 to 3.0 mg/kg, except at 0.5 mg/kg naltrexone", "value": "No differences"},
      {"measurement": "potentiation of naltrexone's decrease in ethanol drinking", "setting": "[1]; gabapentin 0.1 and 10.0 mg/kg coadministered with naltrexone 0.5 mg/kg", "value": "not seen"},
      {"measurement": "effect on lever pressing for ethanol compared to non-drug treated conditions", "setting": "[1]; gabapentin alone, 1 or 10 mg/kg", "value": "neither gabapentin at 1 or 10 mg/kg alone had any effect"}
    ]},
    {"compound": "CC[C@@H](C(N)=O)N1CCCC1=O", "note": "(single isomer, unassigned) [Levetiracetam]", "values": [
      {"measurement": "Number of Lever Presses (mean ± sem)", "setting": "[1]; anticonvulsant 1.0 mg/kg PO + naltrexone 0.5 mg/kg SC", "value": "34 ± 11"},
      {"measurement": "Number of Lever Presses (mean ± sem)", "setting": "[1]; anticonvulsant 10.0 mg/kg PO + naltrexone 0.5 mg/kg SC", "value": "36 ± 8"},
      {"measurement": "Number of Lever Presses (mean ± sem)", "setting": "[1]; anticonvulsant 100.0 mg/kg PO + naltrexone 0.5 mg/kg SC", "value": "34 ± 9"},
      {"measurement": "effect on naltrexone's ability to decrease drinking when coadministered", "setting": "[1]", "value": "did not impair or block"},
      {"measurement": "difference between naltrexone (with vehicle) and combination with naltrexone, lever presses", "setting": "[1]; levetiracetam 1-100 mg/kg PO + naltrexone 0.5 mg/kg SC", "value": "no significant differences"}
    ]},
    {"compound": "NC(=O)N1c2ccccc2C=Cc2ccccc21", "note": "[Carbamazepine, 5H-dibenz [b,f] azepine-5-carboxamide]", "values": [
      {"measurement": "Withdrawal Rating (mean ± sem), behavioral response scale of 1-4", "setting": "[2]; carbamazepine 10 mg/kg PO + saline", "value": "1.1 ± 0.1"},
      {"measurement": "difference between drug groups on the audiogenic convulsion test", "setting": "[2]; carbamazepine 10 mg/kg with/without naltrexone 3 mg/kg, p=0.18", "value": "no statistical differences"},
      {"measurement": "Number of Lever Presses (mean ± sem)", "setting": "[1]; [4]", "value": "68 ± 10"},
      {"measurement": "Number of Lever Presses (mean ± sem)", "setting": "[1]; [5]", "value": "49 ± 8"},
      {"measurement": "Number of Lever Presses (mean ± sem)", "setting": "[1]; [6]", "value": "48 ± 9"},
      {"measurement": "effect of combination with naltrexone on ethanol drinking", "setting": "[1]; carbamazepine 0.1-10.0 mg/kg PO + naltrexone 0.1 mg/kg", "value": "did not significantly affect"},
      {"measurement": "effect on naltrexone's ability to decrease drinking when coadministered", "setting": "[1]", "value": "did not impair or block"}
    ]},
    {"compound": "Nc1nnc(-c2cccc(Cl)c2Cl)c(N)n1", "note": "[Lamotrigine, 6-(2,3-dichlorophenyl)-1,2,4-trizine-3,5-diamine]", "values": [
      {"measurement": "Number of Lever Presses (mean ± sem)", "setting": "[1]; [4]", "value": "61 ± 13"},
      {"measurement": "Number of Lever Presses (mean ± sem)", "setting": "[1]; [5]", "value": "60 ± 13"},
      {"measurement": "Number of Lever Presses (mean ± sem)", "setting": "[1]; [6]", "value": "567 ± 10"},
      {"measurement": "effect on naltrexone's ability to decrease drinking when coadministered", "setting": "[1]", "value": "did not impair or block"},
      {"measurement": "effect of combination with naltrexone on number of lever presses for ethanol", "setting": "[1]; lamotrigine 0.1-10 mg/kg PO + naltrexone 0.1 mg/kg SC", "value": "did not significantly affect"}
    ]},
    {"compound": "O=C1CC[C@@]2(O)[C@H]3Cc4ccc(O)c5c4[C@@]2(CCN3CC2CC2)[C@H]1O5", "note": "[Naltrexone]", "values": [
      {"measurement": "plasma profile of naltrexone, difference between treatment groups", "setting": "[3]", "value": "no statistical difference"},
      {"measurement": "exacerbation of audiogenic-induced convulsions", "setting": "[2]; naltrexone 3 mg/kg with carbamazepine 10 mg/kg, mice with alcohol withdrawal symptoms", "value": "did not exacerbate"},
      {"measurement": "interaction with carbamazepine's anticonvulsant activity", "setting": "[2]; naltrexone 3 mg/kg, carbamazepine 10 mg/kg", "value": "did not appear to interact"},
      {"measurement": "ED50", "setting": "[1]; read-out: ED50 re-established", "value": 0.1, "unit": "mg/kg"},
      {"measurement": "ED50", "setting": "[1]; sc, read-out: ED50 (dose reducing lever responding for ethanol by approximately 50% compared to baseline)", "value": 0.5, "unit": "mg/kg"},
      {"measurement": "ED50", "setting": "[1]; sc, read-out: ED50 for decrease in number of lever presses", "value": "0.1 to 0.5", "unit": "mg/kg"},
      {"measurement": "decrease in lever presses vs baseline and vehicle control", "setting": "[1]; lowest dose of naltrexone tested, 0.05 mg/kg", "value": "no significant decrease"},
      {"measurement": "dose dependence of decrease in number of lever presses", "setting": "[1]; naltrexone 0-6 mg/kg SC", "value": "dose-dependent decrease"},
      {"measurement": "Approximate Absolute Ethanol Consumed", "setting": "[1]; naltrexone 0.05 mg/kg SC", "value": "~1.0", "unit": "g/kg"},
      {"measurement": "Lever Presses (Mean ± SEM)", "setting": "[1]; naltrexone 0.05 mg/kg SC", "value": "132 ± 13.3"},
      {"measurement": "Approximate Absolute Ethanol Consumed", "setting": "[1]; naltrexone 0.1 mg/kg SC", "value": "~0.7", "unit": "g/kg"},
      {"measurement": "Lever Presses (Mean ± SEM)", "setting": "[1]; naltrexone 0.1 mg/kg SC", "value": "88 ± 8.6"},
      {"measurement": "decrease in number of lever presses from the baseline", "setting": "[1]; naltrexone 0.1 mg/kg, carbamazepine study", "value": 42.4, "unit": "%"},
      {"measurement": "Approximate Absolute Ethanol Consumed", "setting": "[1]; naltrexone 0.5 mg/kg SC", "value": "~0.6", "unit": "g/kg"},
      {"measurement": "Lever Presses (Mean ± SEM)", "setting": "[1]; naltrexone 0.5 mg/kg SC", "value": "83 ± 12.1"},
      {"measurement": "decrease in lever responding for ethanol compared to non-drug baseline", "setting": "[1]; naltrexone 0.5 mg/kg SC, levetiracetam study", "value": 65, "unit": "%"},
      {"measurement": "specificity of decrease in drinking for ethanol versus saccharine", "setting": "[1]; naltrexone 0.5 mg/kg SC, 0.1% saccharine solution substituted for ethanol cocktail", "value": "specific for ethanol; also recorded: selective for decreasing ethanol drinking"},
      {"measurement": "Approximate Absolute Ethanol Consumed", "setting": "[1]; naltrexone 1.0 mg/kg SC", "value": "~0.3", "unit": "g/kg"},
      {"measurement": "Lever Presses (Mean ± SEM)", "setting": "[1]; naltrexone 1.0 mg/kg SC", "value": "43 ± 8.6"},
      {"measurement": "Approximate Absolute Ethanol Consumed", "setting": "[1]; naltrexone 3.0 mg/kg SC", "value": "~0.2", "unit": "g/kg"},
      {"measurement": "Lever Presses (Mean ± SEM)", "setting": "[1]; naltrexone 3.0 mg/kg SC", "value": "24 ± 8.1"},
      {"measurement": "Approximate Absolute Ethanol Consumed", "setting": "[1]; naltrexone 6.0 mg/kg SC", "value": "~0.2", "unit": "g/kg"},
      {"measurement": "Lever Presses (Mean ± SEM)", "setting": "[1]; naltrexone 6.0 mg/kg SC", "value": "21 ± 5.5"},
      {"measurement": "effect on decreasing ethanol drinking at higher doses", "setting": "[1]; naltrexone 3 and 6 mg/kg", "value": "appeared to plateau"},
      {"measurement": "decrease in number of lever presses for ethanol compared to non-drug baseline", "setting": "[1]; naltrexone ED50 dose (0.5 mg/kg), gabapentin study", "value": 54, "unit": "%"},
      {"measurement": "reduction in lever pressing for ethanol", "setting": "[1]; naltrexone alone 0.5 mg/kg, additional testing, most of the animals", "value": "greater than 50%"},
      {"measurement": "decrease in lever responding for ethanol compared to non-drug baseline", "setting": "[1]; naltrexone alone (0.1 mg/kg SC), lamotrigine study", "value": 49, "unit": "%"},
      {"measurement": "Number of Lever Presses (mean ± sem)", "setting": "[1]; vehicle (drug dose 0.0) PO + naltrexone 0.1 mg/kg SC, carbamazepine study", "value": "67 ± 17"},
      {"measurement": "Number of Lever Presses (mean ± sem)", "setting": "[1]; vehicle (drug dose 0.0) PO + naltrexone 0.1 mg/kg SC, lamotrigine study", "value": "74 ± 18"},
      {"measurement": "Number of Lever Presses (mean ± sem)", "setting": "[1]; vehicle (drug dose 0.0) PO + naltrexone 0.5 mg/kg SC, levetiracetam study", "value": "50 ± 10"}
    ]},
    {"compound": "CCCC(CCC)C(=O)O", "note": "[valproic acid, 2-propylpentanoic acid]", "values": [
      {"measurement": "safety and efficacy as alternatives to benzodiazepines for the treatment of alcohol withdrawal", "setting": "alcohol withdrawal", "value": "safe and efficacious"}
    ]}
  ]
}
